In the supplement of paper PMC13380429:

Legend:
Details in all cases: 72 h
Caco-2 [1] = assay: drug sensitivity score (DSS) for viability; higher = more toxic; extreme values may be limits of the assay
Calu-3 [2] = assay: as above
Vero E6 [3] = assay: as above
HepG2 [4] = assay: as above
U2OS [5] = assay: as above
Caco-2 [6] = assay: cell viability relative to DMSO; higher = less toxic
Calu-3 [7] = assay: as above
Vero E6 [8] = assay: as above
HepG2 [9] = assay: as above
U2OS [10] = assay: as above
Caco-2 [11] = assay: relative viability EC50 (midpoint between 100% and the lowest measured viability); higher = less toxic
Calu-3 [12] = assay: as above
Vero E6 [13] = assay: as above
HepG2 [14] = assay: as above
U2OS [15] = assay: as above

SMILES	drug sensitivity score (Caco-2 [1])	drug sensitivity score (Calu-3 [2])	drug sensitivity score (Vero E6 [3])	drug sensitivity score (HepG2 [4])	drug sensitivity score (U2OS [5])	cell viability (Caco-2 [6]; 1 nM) [%]	cell viability (Caco-2 [6]; 10 nM) [%]	cell viability (Caco-2 [6]; 100 nM) [%]	cell viability (Caco-2 [6]; 1000 nM) [%]	cell viability (Caco-2 [6]; 10000 nM) [%]	cell viability (Calu-3 [7]; 1 nM) [%]	cell viability (Calu-3 [7]; 10 nM) [%]	cell viability (Calu-3 [7]; 100 nM) [%]	cell viability (Calu-3 [7]; 1000 nM) [%]	cell viability (Calu-3 [7]; 10000 nM) [%]	cell viability (Vero E6 [8]; 1 nM) [%]	cell viability (Vero E6 [8]; 10 nM) [%]	cell viability (Vero E6 [8]; 100 nM) [%]	cell viability (Vero E6 [8]; 1000 nM) [%]	cell viability (Vero E6 [8]; 10000 nM) [%]	cell viability (HepG2 [9]; 1 nM) [%]	cell viability (HepG2 [9]; 10 nM) [%]	cell viability (HepG2 [9]; 100 nM) [%]	cell viability (HepG2 [9]; 1000 nM) [%]	cell viability (HepG2 [9]; 10000 nM) [%]	cell viability (U2OS [10]; 1 nM) [%]	cell viability (U2OS [10]; 10 nM) [%]	cell viability (U2OS [10]; 100 nM) [%]	cell viability (U2OS [10]; 1000 nM) [%]	cell viability (U2OS [10]; 10000 nM) [%]	relative viability EC50 (Caco-2 [11]) [µM]	relative viability EC50 (Calu-3 [12]) [µM]	relative viability EC50 (Vero E6 [13]) [µM]	relative viability EC50 (HepG2 [14]) [µM]	relative viability EC50 (U2OS [15]) [µM]
CO[C@H]1/C=C/O[C@@]2(C)Oc3c(C)c(O)c4c(O)c(c(/C=N/N=C/N5CCCCC5)c(O)c4c3C2=O)NC(=O)/C(C)=C\C=C\[C@H](C)[C@H](O)[C@@H](C)[C@@H](O)[C@@H](C)[C@H](OC(C)=O)[C@@H]1C	0	0	0	0	0	85.4	96.2	84.9	90.9	83.1	107	102	105	98.2	101	102	100	98	98.2	90.9	98.5	101	93.3	113	108	102	106	99	99.6	91.6	> 10	> 10	> 10	> 10	> 10
CCCCCC(C)N (stereo not given) [tuaminoheptane]	0	0	0	4.1	0	90.7	89.6	95.9	96.8	87.6	90.3	98.6	109	107	104	96.4	103	97.9	95	94.4	103	94.9	83	88.8	90.8	100	101	97.5	99.9	96.4	> 10	> 10	> 10	> 10	> 10
Cc1cccc(C)c1NC(=O)CN1CCCCCC1 [pincainide]	0.2	0	0	0	0	94.3	102	94.1	110	82	95.1	96	99	98.7	97.5	98.7	87.8	95.7	89.2	107	99.2	106	118	104	106	97.7	103	98	101	101	> 10	> 10	> 10	> 10	> 10
O=C(O)/C=C/CO [trans-4-hydroxycrotonic-acid]	0	0	0	0	0	96.2	93.5	97.6	103	99.8	109	95.3	102	97.1	100	97	102	94.8	101	106	94.7	92	98	113	102	98.3	99.7	102	98.2	98.9	> 10	> 10	> 10	> 10	> 10
COc1ccc2c(OCc3nnc4ccc(-c5ccccc5)nn34)ccnc2c1 [AMG-208]	0	0	0	0	0	99.8	95.9	104	100	91	108	99.8	97.3	92.2	97	95.6	92.1	93.9	104	91.2	99.4	99.9	101	97	104	104	95.5	102	103	99	> 10	> 10	> 10	> 10	> 10
[N-]=[N+]=CC(=O)CC[C@H](N)C(=O)O [6-diazo-5-oxo-L-norleucine]	0	0	0	0	0	95.4	90	97.8	95.8	92.7	102	90.6	96.4	95.2	98.1	94.2	95.8	86.8	95.6	103	97	105	98.8	97.2	112	104	102	104	98.3	104	> 10	> 10	> 10	> 10	> 10
CC1C(=O)OC2C(O)C34C5CC(C(C)(C)C)C36C(OC(=O)C6O)OC4(C(=O)O5)C12O (stereo not given) [ginkgolide-B]	0	0	0	0	0	98	93.4	102	93.8	92.8	106	90.8	103	98.6	106	100	101	97.1	98.9	100	110	98.4	99	97.3	97.5	106	102	106	96.2	104	> 10	> 10	> 10	> 10	> 10
CC(=O)Oc1ccccc1C(=O)Oc1ccccc1C(=O)O [acetylsalicylsalicylic-acid]	0	0	0	0	0	103	96.1	101	101	103	95.3	78.8	99.3	97	91.9	101	101	102	95.9	99.9	100	106	100	108	92.4	96.1	96.8	103	104	106	> 10	> 10	> 10	> 10	> 10
CC#CCn1c(N2CCC[C@@H](N)C2)nc2c1c(=O)n(Cc1nc(C)c3ccccc3n1)c(=O)n2C [linagliptin]	0	0	0	0	0	103	105	89.9	91.4	102	95.9	103	99.2	97.9	102	97.1	106	105	84.4	110	95.3	93.8	95.7	103	102	98.4	99.8	98.9	107	96.1	> 10	> 10	> 10	> 10	> 10
CC(C)CCNC(=O)[C@H](CC(C)C)NC(=O)[C@H]1O[C@@H]1C(=O)O [loxistatin-acid]	0	0	0	0	0	103	95.6	93.1	99	100	101	95.8	101	91.5	105	103	107	99.4	102	101	93.4	98.3	104	103	104	99.4	98.7	101	101	105	> 10	> 10	> 10	> 10	> 10
COc1[nH]c2ccc(F)cc2c1C(=O)OCC1CCN(CCNS(C)(=O)=O)CC1	0	0	0	0	0	103	99.3	96.7	98.2	98.3	96	94.3	92.2	105	107	103	108	102	104	97.3	98.7	105	97.2	101	94.6	104	94.5	100	97.2	98.9	> 10	> 10	> 10	> 10	> 10
C=C1/C(=C\C=C2/CCC[C@]3(C)[C@@H]([C@H](C)/C=C/[C@H](C)C(C)(C)O)CC[C@@H]23)C[C@@H](O)C[C@@H]1O [ercalcitriol]	0	0	0	0.1	0	97.7	110	106	96.4	94.6	106	99.2	101	99	100	99	99.6	88.5	98.1	94.9	104	107	104	104	84.7	104	99.7	99.4	95.7	91.5	> 10	> 10	> 10	> 10	> 10
Cc1cc(Oc2ccc3nc(COc4ccc(CC5SC(=O)NC5=O)cc4)n(C)c3c2)cc(C)c1N (stereo not given) [efatutazone]	0	0	3.6	0	0	102	97.6	97.1	97.3	97.4	106	102	104	105	99.2	95.4	86	87.5	87.1	85.3	105	99.5	106	104	103	98.3	104	97.5	106	97.6	> 10	> 10	> 10	> 10	> 10
C[C@@H]1C[C@H]2[C@@H]3C[C@H](F)C4=CC(=O)C=C[C@]4(C)[C@@]3(F)[C@@H](O)C[C@]2(C)[C@@]1(O)C(=O)CO [flumethasone]	0	0	0	0	0	84.6	94.5	106	94.1	103	95.5	100	106	92.2	101	107	105	97	105	101	96.8	109	96.1	91.2	91.8	96.6	93.5	98.1	92.1	92.7	> 10	> 10	> 10	> 10	> 10
